Earlier results, collected in patent US4996231A, “Triyne cyclic carbonates” (Merck & Co., Inc., priority 1989, dated 1991).

Columns and labels:
cytosolic β-ketothiolase = settings: initial enzyme of cholesterol biosynthesis
[1] = system: certain bacterial strains

For `C#CC#CC#CC(O)C1OC(=O)OC1CCCCCCC(=O)O` (stereo not shown) [triyne carbonate A, 5-(1-hydroxy-2,4,6-heptatriynyl)-2-oxo-1,3 dioxolane 4heptanoic acid], the “instability of the compound in vivo” value is given as “relative instability”, the “inhibitor of cytosolic β-ketothiolase” value (cytosolic β-ketothiolase) is given as “potent inhibitor” and the “active against certain fungal strains” value (certain fungal strains) is given as “active against certain fungal and bacterial strains”. The “active against certain bacterial strains” value [1] was “active against certain fungal and bacterial strains”.
